Assay results taken from article PMC6297231 (Nature Communications, 2018).
Like-named read-outs stand apart in the source and are kept apart here.

What was measured:
A101D [1] = test: Cell viability assay; format: cell-based; details: Homo sapiens, 24 h; A101D (Skin); read-out: AZD5991 24h GI50
Method: (§2) Cells were plated at 3000 cells/well in 384-well white plates in corresponding cell growth media. […] Caspase-3/7 activation was subsequently determined using a Caspase-Glo 3/7 Reagent (Promega) and viability was assayed using the CellTiter-Glo Reagent (Promega) as described in manufacturer’s instructions. Dose–response curves for caspase-3/7 activation and viability were plotted and analyzed (including EC50 and GI50 determination) using GraphPad Prism.

WM2664 = test: Cell viability assay; format: cell-based; details: Homo sapiens, WM 266-4, 24 h; WM2664 (Skin); read-out: AZD5991 24h GI50
Method: as §2

Sudhl4 = test: Cell viability assay; format: cell-based; details: Homo sapiens, SU-DHL-4, 24 h; Sudhl4 (NHL); read-out: AZD5991 24h GI50
Method: as §2

LP1 = test: Cell viability assay; format: cell-based; details: Homo sapiens, LP-1, 24 h; LP1 (MM); read-out: AZD5991 24h GI50
Method: as §2

Will2 = test: cells; details: 6 h, read-out: AZD5991 6h EC50
Method in brief: (§1)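 Cells were seeded at 3000 cells/well in their respective growth media and treated with compound. Caspase-3/7 activation was read by Caspase-Glo 3/7 luminescence and viability by CellTiter-Glo; EC50 and GI50 came from dose–response curves. Caspase activation is expressed relative to a cell-kill control set at 100%.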

LnCAP = test: cells; details: Homo sapiens, 6 h, read-out: AZD5991 6h EC50
Method in brief: as §1

LK2 = test: cells; details: Homo sapiens, LK-2, 6 h, read-out: AZD5991 6h EC50
Method in brief: as §1

JVM2 = test: cells; details: Homo sapiens, JVM-2, 6 h, read-out: AZD5991 6h EC50
Method in brief: as §1

A101D [2] = test: cells; details: Homo sapiens, 6 h, read-out: AZD5991 6h EC50
Method in brief: as §1

H146 = test: cells; details: Homo sapiens, NCI-H146, 6 h, read-out: AZD5991 6h EC50
Method in brief: as §1

EJM = test: cells; details: Homo sapiens, 6 h, read-out: AZD5991 6h EC50
Method in brief: as §1

RCK8 = test: cells; details: Homo sapiens, RCK8, 6 h, read-out: AZD5991 6h EC50
Method in brief: as §1

DMS79 = test: cells; details: Homo sapiens, DMS-79, 6 h, read-out: AZD5991 6h EC50
Method in brief: as §1

H322 [3] = test: cells; details: NCI-H322, 6 h, read-out: AZD5991 6h EC50
Method in brief: as §1

RPMI8226 = test: cells; details: Homo sapiens, RPMI-8226, 6 h, read-out: AZD5991 6h EC50
Method in brief: as §1

SKMEL24 = test: cells; details: Homo sapiens, SK-MEL-24, 6 h, read-out: AZD5991 6h EC50
Method in brief: as §1

OCILY1 = test: cells; details: Homo sapiens, OCI-Ly1, 6 h, read-out: AZD5991 6h EC50
Method in brief: as §1

Sudhl10 = test: cells; details: Homo sapiens, SU-DHL10, 6 h, read-out: AZD5991 6h EC50
Method in brief: as §1

U2OS = test: cells; details: Homo sapiens, 6 h, read-out: AZD5991 6h EC50
Method in brief: as §1

GRANTA519 = test: cells; details: Homo sapiens, Granta-519, 6 h, read-out: AZD5991 6h EC50
Method in brief: as §1

JEKO1 = test: cells; details: Homo sapiens, JeKo-1, 6 h, read-out: AZD5991 6h EC50
Method in brief: as §1

LUDLU1 = test: Cell viability assay; format: cell-based; details: LUDLU-1, 24 h; LUDLU1 (Lung); read-out: AZD5991 24h GI50
Method: as §2

ZR751 = test: Cell viability assay; format: cell-based; details: Homo sapiens, ZR-75-1, 24 h; ZR751 (Breast); read-out: AZD5991 24h GI50
Method: as §2

OVCAR3 = test: Cell viability assay; format: cell-based; details: Homo sapiens, OVCAR-3, 24 h; OVCAR3 (Others); read-out: AZD5991 24h GI50
Method: as §2

H322 [4] = test: Cell viability assay; format: cell-based; details: NCI-H322, 24 h; H322 (Lung); read-out: AZD5991 24h GI50
Method: as §2

[5] = tested on: NCI-H23 cells depleted of Bak; test: Caspase-3/7 activation after Bak siRNA; format: cell-based; details: Bak siRNA 72 h, then 6 h treatment
Method: NCI-H23 cells were trypsinized and resuspended in growth medium. SiRNA targeting Bak (cat#S1881, ThermoFisher Scientific) or non-targeting siRNA (cat#4390847, ThermoFisher Scientific), and Lipofectamine RNAiMAX (ThermoFisher Scientific) were mixed in OPTIMEM and incubated at room temperature for 20 min. Next, cell suspension was added to each siRNA master mix, dispensed into each well of a 96-well plate and incubated for 72 h.

OCILY19 = test: Cell viability assay; format: cell-based; details: Homo sapiens, OCI-LY19, 24 h; OCILY19 (NHL); read-out: AZD5991 24h GI50
Method: as §2

[6] = tested on: Eμ-Myc lymphoma cells, control; test: cells; details: Mus musculus, 24 h, read-out: apoptosis induction EC50 control
Source text: The retroviral plasmids to express human Bcl-2 family members in murine Eμ-Myc lymphoma cells are MSCV-hMCL-1-GFP, MSCV-hBCL-2-GFP, MSCV-hBCL-XL-GFP, MSCV-hBFL-1/A1-GFP, and MSCV-hBCL-w-GFP. To produce viruses, constructs of interest were co-transfected into HEK293T cells with the plasmid encoding the packaging viruses (p-CL-AMPHO provided by Phillip Darcy from Peter MacCallum Cancer Center, Melbourne, Australia) using standard calcium phosphate transient transfection technique. The retroviruses were harvested, filtered and used to infect target cells following standard procedures.
Samples were then centrifuged, washed twice with PBS and analyzed by flow cytometry in a BD LSRFortessa. FACSDiva software was used for data collection and FlowJo software for data analysis.

MV411 = test: Caspase-3/7 activation assay; format: cell-based; details: Homo sapiens
Method: as §2

U2932 = test: Cell viability assay; format: cell-based; details: Homo sapiens, 24 h; U2932 (NHL); read-out: AZD5991 24h GI50
Method: as §2

Compound Cc1c2c(nn1C)CSCc1cc(n(C)n1)CSc1cc(c3ccccc3c1)OCCCc1c(C(=O)O)n(C)c3c-2c(Cl)ccc13 (atropisomer, axis not shown; (Ra)) [(Ra)-7] has a GI50 (A101D [1]) of 175 nM, a GI50 (WM2664) of 13200 nM and a GI50 (Sudhl4) of 127 nM. For the same compound, the GI50 (LP1) was 258 nM, the EC50 (Will2) was 193 nM and the EC50 (LnCAP) was greater than 30000 nM. The EC50 (LK2) was greater than 30000 nM, the EC50 (JVM2) was 1030 nM and the EC50 (A101D [2]) was 1520 nM. The EC50 (H146) was greater than 30000 nM, the EC50 (EJM) was 169 nM and the EC50 (RCK8) was greater than 30000 nM. For the same compound, the EC50 (DMS79) was greater than 30000 nM, the EC50 (H322 [3]) was greater than 30000 nM and the EC50 (RPMI8226) was 76 nM. For the same compound, the EC50 (SKMEL24) was greater than 30000 nM, the EC50 (OCILY1) was 547 nM and the EC50 (Sudhl10) was 10 nM. The EC50 (U2OS) was greater than 30000 nM, the EC50 (GRANTA519) was greater than 30000 nM and the EC50 (JEKO1) was 512 nM. It also gave a GI50 (LUDLU1) of 991 nM, a GI50 (ZR751) of 21200 nM and a GI50 (OVCAR3) greater than 30000 nM. For the same compound, the GI50 (H322 [4]) was 17400 nM, the “caspase-3/7 activation and cell death” value [5] was “confers resistance” and the GI50 (OCILY19) was 140 nM. The EC50 [6] was 1070 nM, the EC50 (MV411; MV4-11, 6 h, read-out: 6h caspase EC50, MV411, single agent) was 56.3 nM and the EC50 (MV411; MV4-11, 6 h, read-out: AZD5991 6h EC50, MV411 (AML), caspase 3/7 activation) was 25 nM. It also gave an EC50 (MV411; MV4-11, caspase activation, Mcl-1-dependent cell line, read-out: MV4-11, EC50) of 24 nM, an EC50 (MV411; MV4-11, mean of log transformed data, read-out: MV4-11 caspase pEC50 (converted)) of 24 nM and a GI50 (U2932) of 15500 nM.
